The supplement of paper PMC8671470

The compounds below were run on KCL-22 (assay: cell viability (% survival relative to DMSO control, bortezomib = 0%); higher = less cytotoxic). Details: 100 nM; 72 h.
Method in brief: (§1)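 Fifteen myeloid leukaemia cell lines were exposed to compounds at 1, 10, 100, 1000 or 10000 nM in 384-well plates for 72 h at 37 °C and 5% CO2. Viability was read by CellTiter-Glo luminescence and normalised, with vehicle as 100% and a 10 µM positive control as 0%. Values are percent survival averaged over duplicates.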
In the case of `CCc1oc2ccccc2c1C(=O)c1cc(Br)c(O)c(Br)c1` [Benzbromarone], the cell viability is reported as 91.5%. In the case of `CCOC(=O)c1sc(NC(=O)c2ccco2)c(SC#N)c1C` [CBR-5884], the cell viability is reported as 107%. Compound `O=C(/C=C/c1ccc(O)c(O)c1)OCCc1ccccc1` [Caffeic acid phenethyl ester] has a cell viability of 93.3%. Compound `CCCCCOC(=O)Nc1nc(=O)n([C@@H]2O[C@H](C)[C@@H](O)[C@H]2O)cc1F` [Capecitabine] has a cell viability of 66.3%. With `Cc1ccc(-c2cc(C(F)(F)F)nn2-c2ccc(S(N)(=O)=O)cc2)cc1` [Celecoxib] the cell viability was 90.7%. `O=c1c(-c2ccc(O)cc2)coc2cc(O[C@@H]3O[C@H](CO)[C@@H](O)[C@H](O)[C@H]3O)ccc12` [Daidzin] was tested, and the cell viability was 103%. In the case of `CCN(CC)C(=S)SSC(=S)N(CC)CC` [Disulfiram], the cell viability is reported as 94.4%. Compound `c1cc(-c2cnn3cc(-c4ccc(OCCN5CCCCC5)cc4)cnc23)ccn1` [Dorsomorphin] has a cell viability of 102%. In the case of `C[C@H]1c2cccc(O)c2C(=O)C2C(=O)[C@]3(O)C(=O)C(C(N)=O)C(=O)[C@@H](N(C)C)[C@@H]3[C@@H](O)[C@@H]21` (stereo not given in full) [Doxycycline], the cell viability is reported as 93.6%.

Same assay, conditions: 1000 nM; 72 h
For `Cc1c(Cl)cccc1S(=O)(=O)Nc1nc(CC(=O)N2CCN(C)CC2)cs1` [BVT-2733], the cell viability was 98.2%. Compound `CCc1oc2ccccc2c1C(=O)c1cc(Br)c(O)c(Br)c1` [Benzbromarone] has a cell viability of 90.2%. Work on `CCOC(=O)c1sc(NC(=O)c2ccco2)c(SC#N)c1C` [CBR-5884] yielded a cell viability of 105%. In the case of `O=C(/C=C/c1ccc(O)c(O)c1)OCCc1ccccc1` [Caffeic acid phenethyl ester], the cell viability is reported as 71.9%. In the case of `CCCCCOC(=O)Nc1nc(=O)n([C@@H]2O[C@H](C)[C@@H](O)[C@H]2O)cc1F` [Capecitabine], the cell viability is reported as 109%. `Cc1ccc(-c2cc(C(F)(F)F)nn2-c2ccc(S(N)(=O)=O)cc2)cc1` [Celecoxib] showed a cell viability of 76.9%. In the case of `O=c1c(-c2ccc(O)cc2)coc2cc(O[C@@H]3O[C@H](CO)[C@@H](O)[C@H](O)[C@H]3O)ccc12` [Daidzin], the cell viability is reported as 109%. Compound `CCN(CC)C(=S)SSC(=S)N(CC)CC` [Disulfiram] has a cell viability of 61.3%. Compound `c1cc(-c2cnn3cc(-c4ccc(OCCN5CCCCC5)cc4)cnc23)ccn1` [Dorsomorphin] has a cell viability of 94.6%. With `C[C@H]1c2cccc(O)c2C(=O)C2C(=O)[C@]3(O)C(=O)C(C(N)=O)C(=O)[C@@H](N(C)C)[C@@H]3[C@@H](O)[C@@H]21` (stereo not given in full) [Doxycycline] the cell viability was 109%.

Same assay, conditions: 10000 nM; 72 h
For `Cc1c(Cl)cccc1S(=O)(=O)Nc1nc(CC(=O)N2CCN(C)CC2)cs1` [BVT-2733], the cell viability was 98.1%. In the case of `CCc1oc2ccccc2c1C(=O)c1cc(Br)c(O)c(Br)c1` [Benzbromarone], the cell viability is reported as 124%. Work on `CCOC(=O)c1sc(NC(=O)c2ccco2)c(SC#N)c1C` [CBR-5884] yielded a cell viability of 94.6%. `O=C(/C=C/c1ccc(O)c(O)c1)OCCc1ccccc1` [Caffeic acid phenethyl ester] showed a cell viability of 35.8%. Compound `CCCCCOC(=O)Nc1nc(=O)n([C@@H]2O[C@H](C)[C@@H](O)[C@H]2O)cc1F` [Capecitabine] has a cell viability of 85.2%. For `Cc1ccc(-c2cc(C(F)(F)F)nn2-c2ccc(S(N)(=O)=O)cc2)cc1` [Celecoxib], the cell viability was 80%. `O=c1c(-c2ccc(O)cc2)coc2cc(O[C@@H]3O[C@H](CO)[C@@H](O)[C@H](O)[C@H]3O)ccc12` [Daidzin] showed a cell viability of 111%. `CCN(CC)C(=S)SSC(=S)N(CC)CC` [Disulfiram] showed a cell viability of 62.7%. Work on `c1cc(-c2cnn3cc(-c4ccc(OCCN5CCCCC5)cc4)cnc23)ccn1` [Dorsomorphin] yielded a cell viability of 37.7%. `C[C@H]1c2cccc(O)c2C(=O)C2C(=O)[C@]3(O)C(=O)C(C(N)=O)C(=O)[C@@H](N(C)C)[C@@H]3[C@@H](O)[C@@H]21` (stereo not given in full) [Doxycycline] was tested, and the cell viability was 41.6%.

Each compound was assayed on ML-2 in the same assay as above. Details: 1 nM; 72 h.
Method in brief: as §1
`Cc1c(Cl)cccc1S(=O)(=O)Nc1nc(CC(=O)N2CCN(C)CC2)cs1` [BVT-2733] was tested, and the cell viability was 108%. `CCc1oc2ccccc2c1C(=O)c1cc(Br)c(O)c(Br)c1` [Benzbromarone] was tested, and the cell viability was 99.6%. For `CCOC(=O)c1sc(NC(=O)c2ccco2)c(SC#N)c1C` [CBR-5884], the cell viability was 94.5%. Compound `O=C(/C=C/c1ccc(O)c(O)c1)OCCc1ccccc1` [Caffeic acid phenethyl ester] has a cell viability of 97.8%. Compound `CCCCCOC(=O)Nc1nc(=O)n([C@@H]2O[C@H](C)[C@@H](O)[C@H]2O)cc1F` [Capecitabine] has a cell viability of 107%. Compound `Cc1ccc(-c2cc(C(F)(F)F)nn2-c2ccc(S(N)(=O)=O)cc2)cc1` [Celecoxib] has a cell viability of 93.5%. `O=c1c(-c2ccc(O)cc2)coc2cc(O[C@@H]3O[C@H](CO)[C@@H](O)[C@H](O)[C@H]3O)ccc12` [Daidzin] showed a cell viability of 103%. Compound `CCN(CC)C(=S)SSC(=S)N(CC)CC` [Disulfiram] has a cell viability of 92%. `c1cc(-c2cnn3cc(-c4ccc(OCCN5CCCCC5)cc4)cnc23)ccn1` [Dorsomorphin] gave a cell viability of 95.2%. For `C[C@H]1c2cccc(O)c2C(=O)C2C(=O)[C@]3(O)C(=O)C(C(N)=O)C(=O)[C@@H](N(C)C)[C@@H]3[C@@H](O)[C@@H]21` (stereo not given in full) [Doxycycline], the cell viability was 111%.

Same assay, conditions: 10 nM; 72 h
`Cc1c(Cl)cccc1S(=O)(=O)Nc1nc(CC(=O)N2CCN(C)CC2)cs1` [BVT-2733] showed a cell viability of 91.1%. With `CCc1oc2ccccc2c1C(=O)c1cc(Br)c(O)c(Br)c1` [Benzbromarone] the cell viability was 96.6%. For `CCOC(=O)c1sc(NC(=O)c2ccco2)c(SC#N)c1C` [CBR-5884], the cell viability was 97.2%. `O=C(/C=C/c1ccc(O)c(O)c1)OCCc1ccccc1` [Caffeic acid phenethyl ester] was tested, and the cell viability was 106%. `CCCCCOC(=O)Nc1nc(=O)n([C@@H]2O[C@H](C)[C@@H](O)[C@H]2O)cc1F` [Capecitabine] gave a cell viability of 95.5%. In the case of `Cc1ccc(-c2cc(C(F)(F)F)nn2-c2ccc(S(N)(=O)=O)cc2)cc1` [Celecoxib], the cell viability is reported as 99.2%. For `O=c1c(-c2ccc(O)cc2)coc2cc(O[C@@H]3O[C@H](CO)[C@@H](O)[C@H](O)[C@H]3O)ccc12` [Daidzin], the cell viability was 90.1%. Work on `CCN(CC)C(=S)SSC(=S)N(CC)CC` [Disulfiram] yielded a cell viability of 106%. `c1cc(-c2cnn3cc(-c4ccc(OCCN5CCCCC5)cc4)cnc23)ccn1` [Dorsomorphin] gave a cell viability of 113%. In the case of `C[C@H]1c2cccc(O)c2C(=O)C2C(=O)[C@]3(O)C(=O)C(C(N)=O)C(=O)[C@@H](N(C)C)[C@@H]3[C@@H](O)[C@@H]21` (stereo not given in full) [Doxycycline], the cell viability is reported as 103%.

Same assay, conditions: 100 nM; 72 h
With `Cc1c(Cl)cccc1S(=O)(=O)Nc1nc(CC(=O)N2CCN(C)CC2)cs1` [BVT-2733] the cell viability was 92.6%. Work on `CCc1oc2ccccc2c1C(=O)c1cc(Br)c(O)c(Br)c1` [Benzbromarone] yielded a cell viability of 109%. Compound `CCOC(=O)c1sc(NC(=O)c2ccco2)c(SC#N)c1C` [CBR-5884] has a cell viability of 104%. `O=C(/C=C/c1ccc(O)c(O)c1)OCCc1ccccc1` [Caffeic acid phenethyl ester] showed a cell viability of 104%. `CCCCCOC(=O)Nc1nc(=O)n([C@@H]2O[C@H](C)[C@@H](O)[C@H]2O)cc1F` [Capecitabine] was tested, and the cell viability was 86.1%. `Cc1ccc(-c2cc(C(F)(F)F)nn2-c2ccc(S(N)(=O)=O)cc2)cc1` [Celecoxib] gave a cell viability of 105%. For `O=c1c(-c2ccc(O)cc2)coc2cc(O[C@@H]3O[C@H](CO)[C@@H](O)[C@H](O)[C@H]3O)ccc12` [Daidzin], the cell viability was 95.8%. `CCN(CC)C(=S)SSC(=S)N(CC)CC` [Disulfiram] gave a cell viability of 91.4%. `c1cc(-c2cnn3cc(-c4ccc(OCCN5CCCCC5)cc4)cnc23)ccn1` [Dorsomorphin] showed a cell viability of 96.7%. `C[C@H]1c2cccc(O)c2C(=O)C2C(=O)[C@]3(O)C(=O)C(C(N)=O)C(=O)[C@@H](N(C)C)[C@@H]3[C@@H](O)[C@@H]21` (stereo not given in full) [Doxycycline] showed a cell viability of 97.9%.

Same assay, conditions: 1000 nM; 72 h
Work on `Cc1c(Cl)cccc1S(=O)(=O)Nc1nc(CC(=O)N2CCN(C)CC2)cs1` [BVT-2733] yielded a cell viability of 108%.
